Measured values as given in patent publication US12516022B2, “Derivatives of aryl hydrocarbon receptor agonists” (AZORA THERAPEUTICS, INC., priority 2021, dated 2026).

What was measured:
AhR [1] = target: T1, AhR (Homo sapiens, UniProt P35869); assay: AhR/arnt-luciferase reporter assay in human Huh7 cells
T1 sequence (P35869 11-848): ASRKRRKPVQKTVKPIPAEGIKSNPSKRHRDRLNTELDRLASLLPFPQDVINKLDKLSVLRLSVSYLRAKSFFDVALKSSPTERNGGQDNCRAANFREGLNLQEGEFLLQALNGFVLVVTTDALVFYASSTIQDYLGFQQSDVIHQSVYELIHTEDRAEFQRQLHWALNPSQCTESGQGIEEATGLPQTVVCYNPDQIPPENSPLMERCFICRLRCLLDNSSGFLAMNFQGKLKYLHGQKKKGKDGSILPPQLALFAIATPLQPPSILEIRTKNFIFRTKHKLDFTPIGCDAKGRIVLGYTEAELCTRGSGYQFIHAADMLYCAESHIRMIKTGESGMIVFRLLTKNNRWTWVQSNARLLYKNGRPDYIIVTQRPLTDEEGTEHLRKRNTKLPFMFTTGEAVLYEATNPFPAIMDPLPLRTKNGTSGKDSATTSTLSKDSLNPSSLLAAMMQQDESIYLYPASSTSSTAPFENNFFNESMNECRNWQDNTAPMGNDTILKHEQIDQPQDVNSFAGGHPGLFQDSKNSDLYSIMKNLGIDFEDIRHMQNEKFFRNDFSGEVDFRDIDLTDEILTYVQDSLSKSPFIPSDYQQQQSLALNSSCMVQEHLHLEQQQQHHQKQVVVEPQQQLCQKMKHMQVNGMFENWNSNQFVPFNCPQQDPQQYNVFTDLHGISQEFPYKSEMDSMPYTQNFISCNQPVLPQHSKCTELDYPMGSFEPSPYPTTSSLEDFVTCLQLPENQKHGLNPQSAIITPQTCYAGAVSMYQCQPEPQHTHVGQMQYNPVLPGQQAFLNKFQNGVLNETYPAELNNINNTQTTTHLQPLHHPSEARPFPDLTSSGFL
Procedure: (§1) TCDD and MeBio were included in the study as positive controls. These were added into cell culture media containing charcoal-stripped fetal bovine serum to produce a 2× stock and then added to the reporter cells. The reporter cells were human Huh7 cells or Rat H4IIE cell lines with the native AhR and an AhR/arnt-Luciferase reporter vector. The final concentration of DM50 was 0.1%. Cells were incubated for 22 hours at 37° C. prior to addition of the luciferase detection reagent and measurement of activity in relative luminescence units.

AhR [2] = target: T2, AhR (Rattus norvegicus, UniProt P41738); assay: AhR/arnt-luciferase reporter assay in rat H4IIE cells
T2 sequence (P41738 10-853): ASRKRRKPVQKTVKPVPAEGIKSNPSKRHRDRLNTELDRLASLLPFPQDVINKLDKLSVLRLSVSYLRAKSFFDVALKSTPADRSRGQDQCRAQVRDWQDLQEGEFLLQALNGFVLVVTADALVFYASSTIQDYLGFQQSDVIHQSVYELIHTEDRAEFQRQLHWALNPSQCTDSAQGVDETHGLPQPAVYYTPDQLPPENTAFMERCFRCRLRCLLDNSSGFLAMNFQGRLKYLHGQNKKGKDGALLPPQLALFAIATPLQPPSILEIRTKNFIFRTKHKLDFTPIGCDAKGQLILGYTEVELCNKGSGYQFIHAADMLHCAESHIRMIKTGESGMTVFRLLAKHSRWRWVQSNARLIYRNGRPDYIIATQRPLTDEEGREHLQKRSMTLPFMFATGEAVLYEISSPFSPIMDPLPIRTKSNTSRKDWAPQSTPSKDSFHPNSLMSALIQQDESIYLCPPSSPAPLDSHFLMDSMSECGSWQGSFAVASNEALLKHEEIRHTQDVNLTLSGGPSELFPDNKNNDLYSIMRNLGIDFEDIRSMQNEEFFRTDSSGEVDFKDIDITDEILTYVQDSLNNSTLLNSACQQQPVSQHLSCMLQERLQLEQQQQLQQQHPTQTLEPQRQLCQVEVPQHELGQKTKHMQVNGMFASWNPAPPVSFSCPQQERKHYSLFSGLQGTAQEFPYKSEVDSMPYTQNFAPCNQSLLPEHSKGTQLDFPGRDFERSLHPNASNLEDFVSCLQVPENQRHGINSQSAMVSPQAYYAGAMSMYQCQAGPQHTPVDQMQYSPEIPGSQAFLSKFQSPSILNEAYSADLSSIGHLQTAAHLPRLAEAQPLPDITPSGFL
Procedure: as §1

[3] = test system: dextran sodium sulfate (DSS)-induced acute colitis; assay: DSS-induced acute colitis mouse model, Compound 8 (Example 6); assay type: in vivo, C57 BL/6J mice; conditions: mice, 2 mg/kg/day oral gavage twice daily, 9 day test period
Procedure: Eight week old female C57 BL/6J mice, around 20 g body weight purchased from Charles River Laboratories were bred in specific pathogen free IVC cages (4 mice in each cage) in a temperature controlled (20±2° C.) room with a 12 hour light-dark cycle. Chow pellets and tap water were available ad libitum. All experimental protocols were approved by the Institutional Animal Care and Use Committee. The mice were acclimated at the animal facility for at least of three days before the experiments.
To generate dextran sodium sulfate (DSS)-induced acute colitis, the mice were induced with 3% DSS (molecular weight 36,000-50,000; MP Biomedicals, Santa Ana, CA, USA) in their drinking water for 7 consecutive days, and then switched to normal water. DSS solution was freshly prepared and changed daily. These mice were euthanized on day 8 (9th day of the experiment).
The mice were divided into groups with eight mice in each group. Mice were dosed with either 2 mg/kg/day Compound 8, twice daily in 200 μL distilled water (pH=7.0) by gavage from Day 0 to Day 9. Mice in the vehicle group were given only 200 μL distilled water by gavage.
Body weight and disease activity index (DAI) soring were recorded daily to assess the colitis. DAI score was the sum of the weight loss score, stool score and bleeding subscores. A blinded scoring system was employed to assess the colitis. […]

[4] = Indirubin solubility in biorelevant media (FaSSIF, FaSSGF), HPLC; assay type: physicochemical; conditions: for Solubility in the simulated fluids: FaSSGF and FaSSIF
Procedure: Biorelevant media was prepared as per the supplier's (Biorelevant) method, using FaSSIF/FeSSIF/FaSSGF powders. In brief, FaSSGF media was prepared using 0.06 g/L FaSSIF/FeSSIF/FaSSGF powder in 2 g/L NaCl solution, pH adjusted to 1.6 with 1N HCl. FaSSIF media was prepared with 2.24 g/L FaSSIF/FeSSIF/FaSSGF powder in sodium phosphate buffer, pH adjusted to 6.5 with 1N NaOH. (Sodium phosphate buffer prepared as a 0.42 g/L NaOH, 3.95 g/L NaH2PO4·H2O, 6.19 g/L NaCl solution).
Solubility assessments were performed as follows. An individual flask was prepared for each media and time point. Flasks were placed in a shaking water bath kept at 37° C. Flasks were removed from the bath at specified time points of 1 hour, 4 hours and 24 hours, allowed to cool, and an aliquot taken and filtered.

[5] = test system: dextran sodium sulfate (DSS)-induced acute colitis; assay: DSS-induced acute colitis mouse model, exemplary compounds (Example 7); assay type: in vivo; conditions: mice, oral gavage twice daily for 9 days, indirubin molar equivalent of 15 mg/kg
Procedure: Eight week old female C57 BL/6J mice, around 20 g body weight purchased from Charles River Laboratories were bred in specific pathogen free IVC cages (4 mice in each cage) in a temperature controlled (20±2° C.) room with a 12 hour light-dark cycle. Chow pellets and tap water were available ad libitum. All experimental protocols were approved by the Institutional Animal Care and Use Committee. The mice were acclimated at the animal facility for at least of three days before the experiments. To generate dextran sodium sulfate (DSS)-induced acute colitis, the mice were induced with 3% DSS (molecular weight 36,000-50,000; […] DSS solution was freshly prepared and changed daily. These mice were euthanized on day 8 (9th day of the experiment). Body weight and disease activity index (DAI) soring were recorded daily to assess the colitis. DAI score was the sum of the weight loss score, stool score and bleeding subscores. A blinded scoring system was employed to assess the colitis. The DAI scorer blinded to the group information and animal ID was responsible for the stool consistency and bleeding evaluations. DAI scoring standards will be followed as below. A study was conducted as in set forth in Example 6. […] Mice in the vehicle group were given only 200 μL distilled water by gavage.

[6] = Indirubin levels in plasma, colon and lung of colitis mice, LC-MS/MS (Example 8); assay type: in vivo; conditions: six hours after the last oral dose, indirubin molar equivalent of 15 mg/kg twice daily
Procedure: Five animals from each group in Example 7 were euthanized six hours after the last oral dose. At this time plasma, lung and colon was harvested. Colon was washed three times in cold phosphate buffered saline (PBS) to remove colon contents.
Indirubin was detected utilizing LC-MS/MS.
To prepare samples, an aliquot of 20 μL unknown sample, calibration standard, quality control, single blank and double blank samples were added to the 96-well plate. Samples (except the double blank) for plasma were quenched with 100 μL internal standard respectively (double blank sample was quenched with 100 μL acetonitrile (ACN)), samples (except the double blank) for liver, lung and colon were quenched with 80 μL internal standard respectively (double blank sample was quenched with 80 μL ACN), and then the mixture was vortex-mixed for 5 minutes at 800 rpm and centrifuged for 15 minutes at 3220 g (4000 rpm), at 4° C. 50 μL supernatant was transfer to another clean 96-well plate and the supernatant were directly injected for LC-MS/MS analysis.

O=C1/C(=C2/C(=O)N(CO)c3ccccc32)Nc2ccccc21 [Compound 8]
EC50 (AhR [1]): 71.5 nM | Activation of the AhR compared with equimolar synthetic indirubin (AhR [1]; human Huh7 and rat H4IIE cells): activates the AhR to an equal or greater extent, and at the same or lower concentration, than an equimolar amount of synthetic indirubin | EC50 greater than the EC50 for indirubin (AhR [1]; human Huh7 cells): about 20% | EC50 (AhR [2]): 25.6 nM | Disease activity index (DAI) versus placebo [3]: lower disease activity index

CCN(CC)CN1C(=O)/C(=C2\Nc3ccccc3C2=O)c2ccccc21 [Compound 9]
Solubility in the simulated fluids [4]: soluble in the simulated fluids

CN1CCN(CN2C(=O)/C(=C3\Nc4ccccc4C3=O)c3ccccc32)CC1 [Compound 10]
Solubility in the simulated fluids [4]: soluble in the simulated fluids

O=C1/C(=C2/C(=O)N(CN3CCCC3)c3ccccc32)Nc2ccccc21 [Compound 41]
Efficacy (percent of initial body weight, DAI score) [5]: more effective than an equimolar amount of indirubin

O=C1Nc2ccccc2/C1=C1/Nc2ccccc2C1=O [indirubin, reference compound]
EC50 (AhR [2]): ~654 nM

O=C1Nc2ccccc2/C1=C1/Nc2ccccc2C1=O [synthetic indirubin]
Colon length versus vehicle [5]: vehicle only have a shorter colon than those treated with synthetic indirubin | Mean Indirubin Level, Colon [6]: 2.43 ng/g | Mean Indirubin Level, Lung [6]: 2.12 ng/g | Mean Indirubin Level, Plasma [6]: 0.05 ng/mL | % indirubin recovered in solution ([4]; FaSSIF 24 hr, 37° C., 5 μg/mL indirubin or molar equivalent): 0.1%
